Measurements reported in patent US20050196806A1, “Prostate specific antigen oligoepitope peptide” (The Government of the USA, as represented by the Secretary, …, priority 1996, published 2005).
“And” between values parts separate entries of the source, which are not always exact repeats. Identical values can stand only once.

Legend:
CIR-A2 cells = assay: CTL activity of PSA-OP specific T cell lines against peptide pulsed CIR-A2 cells; type: cell-based, human; conditions: effector T/PSA-OP-1; 50 μg/ml peptide for 3 h; 18 h CTL assay; E:T ratio 25:1; No peptide 7.9(2.7)
Method: Peripheral blood mononuclear cells (PBMCs) were obtained from heparinized blood of healthy HLA-A2 donors using a lymphocyte separation medium gradient (Organon Technika, Durham, N.C.). The mononuclear cell fraction was washed 3 times and PBMCs were resuspended in complete medium: AIM V (Life Technologies, Inc.) supplemented with 5% human AB serum (Valley Biomedical, Winchester, Va.), 2 mM glutamine, 100 U/ml of penicillin, and 100 μg/ml of streptomycin (GIBCO). Cells (2×10^5) in complete medium in a volume of 100 μl were put into each well of a 96-well flat-bottom assay plate (Corning, Costar Corp., Cambridge, Mass.). Peptides were added to cultures at a final concentration of […]. Cultures were incubated for 5 days at 37° C. in a humidified atmosphere containing 5% CO2. […]
Various target cells were labeled with 50 μCi of ^111In-oxyquinoline (Medi-Physics Inc., Arlington, Ill.) for 15 minutes at room temperature. […] Determinations were carried out in triplicate and standard deviations were calculated. […] Specific Lysis was calculated using the following formula: % of Specific Release=observed release(cpm)−spontaneous release(cpm) total releae(cpm)−spontaneous release(cpm)×100
Spontaneous release was determined from wells to which 100 μl of complete medium, instead of effector cells was added. Total releasable radioactivity was obtained after treatment of target cells with 2.5% Triton X-100.

[1] = system: LNCAP PSA expressing human prostate cancer cell line; assay: Cytotoxic assay of PSA peptide specific T cells against LNCAP (Example III); type: cell-based; conditions: T-Donor A T-cell line; 24 hour assay, E:T ratio 25:1; listed as 141-150
Text: Four of the T cell lines derived from three different individuals were then assays for their ability to lyse human cells (Table 9). […] No lysis was seen using the PSA negative human colon cancer cell line COLO-205. While 80% lysis was seen using the LNCAP PSA expressing human prostate cancer cell line. When employing the NK target K562, which measures non-specific lysis due to NK cell activity, only 23% lysis was obtained. Similar results were seen employing a different T cell line obtained from the same patient which was derived from pulsing with PSA peptide 154-163. Two additional T cell lines which were derived from peptide 154-163 were also analyzed. One was from a normal donor (T-1538) and one was from a prostate cancer patient (T-PC2; T Donor C).

[2] = system: PBLs isolated from male HLA-A2001+ donors; assay: Limiting dilution analysis of CTL precursor frequency; type: cell-based, human; conditions: for Number of precursors (precursor frequency): calculated by X^2 minimization; for % of negative microcolonies, 10,000: two cycles of stimulation with the peptide, targets CIRA2 pulsed 3 h, cold K562
Method: Limiting dilution assays were used for the determination of precursor frequencies to PSA-1, PSA-3 and PSA-OP. Various number of PBMCs were seeded in 96-well flat bottom plates (Coming Costar) with 1×10^4 autologous PBMC irradiated with 4,000 rads and incubated with 50 μg/ml of PSA peptide. Cells were cultured in complete medium as described previously. At least 48 cultures were set up for each dilution. Cultures were incubated for 5 days at 37° C. in a humidified atmosphere containing 5% CO2 and then provided with fresh medium containing human IL-2 for 11 days, with IL-2-containing medium being replenished every 72 hr as shown below for CTLs generation. After two cycles of stimulation specific cytotoxic activity was tested for each single well, against CIR-A2 target cells with or without incubation with peptide. Cytotoxic assays were similar to the method described above. The unlabelled K562 cells were added to the microwells containing responder cells. After 1 hr incubation at 37° C. target cells were added into each well and incubated for 6 hrs at 37° C. Precursor frequencies were calculated by X^2 minimization.

**Q.** Which “% of Specific release (SD), CIR-A2 cells pulsed with the peptide” value (CIR-A2 cells) does the source give for FLTPKKLQCV [PSA-1, ID No. 1] here?
**A.** 8.4(4.0) %

**Q.** What about the “% specific release (lysis), LNCAP” value [1] of the same sequence?
**A.** 80% and 80^b %

**Q.** What about the “% of negative microcolonies, 500” value ([2]; T/PSA-OP 2 donor) of the same sequence?
**A.** 95.8%

**Q.** What about the “% of negative microcolonies, 1,000” value ([2]; T/PSA-OP 2 donor) of the same sequence?
**A.** 93.7%

**Q.** What about the “% of negative microcolonies, 5,000” value ([2]; T/PSA-OP 2 donor) of the same sequence?
**A.** 75.0%

**Q.** What about the “Number of precursors (precursor frequency)” value ([2]; T/PSA-OP 2 donor) of the same sequence?
**A.** 1/14695

**Q.** And the “% of negative microcolonies, 10,000” value ([2]; T/PSA-OP 2 donor)?
**A.** 47.9%

**Q.** And the “% of negative microcolonies, 500” value ([2]; T/PSA-OP 3 donor)?
**A.** 100.0%

**Q.** And the “% of negative microcolonies, 1,000” value ([2]; T/PSA-OP 3 donor)?
**A.** 100.0%

**Q.** And the “% of negative microcolonies, 5,000” value ([2]; T/PSA-OP 3 donor)?
**A.** 97.9%

**Q.** And the “Number of precursors (precursor frequency)” value ([2]; T/PSA-OP 3 donor)?
**A.** 1/181480

**Q.** What about the “% of negative microcolonies, 10,000” value ([2]; T/PSA-OP 3 donor) of the same sequence?
**A.** 93.7%
